From publication PMC4263137, “Positron emission tomography and functional characterization of a complete PBR/TSPO knockout” (Nature Communications, 2014)

Target: T1, PBR/TSPO (18-kDa translocator protein) (Mus musculus, UniProt P50637)
T1 construct: native protein in kidney and testis membranes of Tspo+/+ mice
Experiment: [3H]PK11195 saturation radioligand binding on tissue membranes; autoradiography; no binding in Tspo-/- mice

T1 sequence (P50637 whole entry): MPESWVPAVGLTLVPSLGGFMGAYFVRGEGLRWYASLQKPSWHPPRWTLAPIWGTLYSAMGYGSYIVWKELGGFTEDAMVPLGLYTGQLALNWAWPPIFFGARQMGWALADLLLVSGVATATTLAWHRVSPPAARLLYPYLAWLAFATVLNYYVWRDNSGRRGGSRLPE

CCC(C)N(C)C(=O)c1cc2ccccc2c(-c2ccccc2Cl)n1 (stereo not shown) [PK11195, 1-(2-chlorophenyl)-N-methyl-(1-methylpropyl)-3 isoquinolinecarboxamide]
Kd: 0.0129 µM
